# Experimental data published in patent publication US20090196912A1, “Pyridinylamines” (GPC Botech AG, priority 2004, published 2009).
# Target: cRaf (Homo sapiens, UniProt P04049)
# Experiment: Generic kinase assay (33P-ATP, Myelin Basic Protein)
# Format: biochemical
# Conditions: 1 h; class symbol: % inhibition at 10 μM or IC50; read-out: Inhibitory effect on target cRaf
# Description: (§1) In order to determine the inhibitory effect of the compounds of the subject invention on various target enzymes a generic kinase assay was established.
# (§2) Reactions were performed in 96-Well U-bottom microtiter plates (Greiner Bio-One; Frickenhausen/Germany, Cat. No. 650161), hereinafter designated “Assay Plates”. 10 μl of a solution comprising 40 μM Myelin Basic Protein (Invitrogen; Carlsbad, Calif./USA; Cat. No. 13228-010) and 4 μM ATP in three-fold concentrated Reaction Buffer (60 mM Tris-HCl, pH 7.5; 30 mM MgCl2; 3 mM dithiothreitol) were added into each well of the Assay Plate. 10 μl of serial dilutions of the compounds of the subject invention, dissolved in 4% DMSO, were then added into each well, except for Positive Control. Wells (C+ wells) and Negative Control Wells (C− wells). 10 μl of 4% DMSO without compounds were added to C+ and C− wells. 10 μl of a 500 mM solution of EDTA in water was then added to C− wells. Then 10 μl of a solution containing 50 μCi/ml Adenosine 5′-[γ-^33P]triphosphate in water was added to each well. To start the reaction 10 μl of the kinase to be assayed was added to each well. The optimal amount of kinase in the assay was determined to be the amount which yields to a turn-over of about 10% of ATP. Assay Plates were incubated for one hour at room temperature. Then 10 μl of a 500 mM solution of EDTA in water was added to each well except C− wells. Samples were now ready for measurement.
# (§3) Measurements were preformed in 96-Well MAPH-Filter Plates (Millipore; Billerica, Mass./United States; Cat. No. MAPHNOB50), hereinafter designated “Measurement Plates”. Measurement Plates were washed with 200 μl of a 0.75% H3PO4 solution per well. The H3PO4 solution was exhausted using a Millipore vacuum station. 60 μl of a 0.75% H3PO4 solution was then added into each well, followed by the transfer of 30 μl of each well from the Assay Plate into the corresponding wells of the Measurement Plate. The Measurement Plate was incubated for 30 minutes at room temperature. Thereafter each well was washed three times with 200 μl of a 0.75% H3PO4 solution using a Millipore vacuum station. 20 μl of scintillation liquid (Supermix Liquid Szintillator; Perkin Elmer, Wellesley. Mass./United States; Cat. No. 1200-439) was then added to each well of the Measurement Plate. The plate was sealed and stored for 30 minutes in the darkness before radioactivity was quantified in a MicroBeta Scintillation Counter (Perkin Elmer, Wellesley. Mass./United States).
row,inhibition at 10 µM [%],SMILES
1,50 to 90,"Oc1cccc(CNc2cncc(-c3cccc(O)c3)c2)c1 [Compound 225, 3-{5-[(3-Hydroxybenzyl)amino]pyridin-3-yl}phenol]"

# Target: Abl (Homo sapiens, UniProt P00519)
# Experiment: as above
# Format: biochemical
# Conditions: 1 h; class symbol: % inhibition at 10 μM or IC50; read-out: Inhibitory effect on target Abl
# Description: as §1, §2, §3
row,inhibition at 10 µM [%],SMILES
1,50 to 90,"Oc1cccc(CNc2cncc(-c3cccc(O)c3)c2)c1 [Compound 225, 3-{5-[(3-Hydroxybenzyl)amino]pyridin-3-yl}phenol]"

# Target: ROCK 2 (Homo sapiens, UniProt O75116)
# Experiment: as above
# Format: biochemical
# Conditions: 1 h; class symbol: % inhibition at 10 μM or IC50; read-out: Inhibitory effect on target ROCK 2
# Description: as §1, §2, §3
# ROCK 2, sequence (O75116 whole entry, species assumed): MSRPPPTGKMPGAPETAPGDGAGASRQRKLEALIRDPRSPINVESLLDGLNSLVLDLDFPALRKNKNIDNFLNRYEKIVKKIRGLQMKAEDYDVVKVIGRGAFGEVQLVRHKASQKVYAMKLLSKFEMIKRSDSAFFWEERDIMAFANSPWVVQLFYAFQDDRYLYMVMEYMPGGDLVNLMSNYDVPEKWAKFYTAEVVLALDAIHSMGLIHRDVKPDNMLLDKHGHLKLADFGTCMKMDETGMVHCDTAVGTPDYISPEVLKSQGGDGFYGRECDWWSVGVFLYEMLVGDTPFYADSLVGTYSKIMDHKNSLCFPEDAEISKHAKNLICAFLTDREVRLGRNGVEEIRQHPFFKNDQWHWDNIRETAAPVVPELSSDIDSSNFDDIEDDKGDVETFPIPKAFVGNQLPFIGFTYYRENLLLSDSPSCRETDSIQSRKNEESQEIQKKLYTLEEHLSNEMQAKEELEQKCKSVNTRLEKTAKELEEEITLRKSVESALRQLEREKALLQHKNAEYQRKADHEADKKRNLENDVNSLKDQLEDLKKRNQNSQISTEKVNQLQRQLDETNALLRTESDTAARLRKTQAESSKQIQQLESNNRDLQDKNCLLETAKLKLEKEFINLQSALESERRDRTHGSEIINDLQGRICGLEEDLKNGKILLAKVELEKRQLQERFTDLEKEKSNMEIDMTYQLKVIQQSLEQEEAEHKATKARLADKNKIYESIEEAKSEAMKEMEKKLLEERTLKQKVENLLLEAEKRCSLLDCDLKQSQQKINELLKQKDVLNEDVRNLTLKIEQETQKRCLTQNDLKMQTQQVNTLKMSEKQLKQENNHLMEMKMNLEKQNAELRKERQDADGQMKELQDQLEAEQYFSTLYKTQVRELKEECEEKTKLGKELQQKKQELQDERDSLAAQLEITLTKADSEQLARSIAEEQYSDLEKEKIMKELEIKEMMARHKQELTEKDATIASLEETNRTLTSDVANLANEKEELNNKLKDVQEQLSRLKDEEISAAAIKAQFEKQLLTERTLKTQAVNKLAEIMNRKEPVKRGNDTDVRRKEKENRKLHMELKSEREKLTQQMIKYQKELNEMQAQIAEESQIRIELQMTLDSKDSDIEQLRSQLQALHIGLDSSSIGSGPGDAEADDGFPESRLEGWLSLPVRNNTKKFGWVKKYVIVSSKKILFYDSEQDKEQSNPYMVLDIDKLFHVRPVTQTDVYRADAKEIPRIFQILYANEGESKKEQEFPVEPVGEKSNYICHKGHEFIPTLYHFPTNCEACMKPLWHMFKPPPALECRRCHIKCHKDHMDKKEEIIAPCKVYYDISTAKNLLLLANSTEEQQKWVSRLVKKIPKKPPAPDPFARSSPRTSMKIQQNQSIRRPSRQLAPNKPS
row,SMILES,inhibition at 10 µM [%]
1,"Oc1cccc(CNc2cncc(Cc3cccc(O)c3)c2)c1 [Compound 272, (3-hydroxy-benzyl)-[5-(3-hydroxy-benzyl)-pyridin-3-yl]-amine]",50 to 90
2,"Oc1cccc(CNc2cncc(-c3cccc(O)c3)c2)c1 [Compound 225, 3-{5-[(3-Hydroxybenzyl)amino]pyridin-3-yl}phenol]",50 to 90

# Further lines, results first:
row,inhibition at 10 µM [%],SMILES
1,50 to 90,"Cc1ccc(CNc2cncc(-c3cccc(O)c3)c2)cc1O [Compound 247, 5-{[5-(3-Hydroxy-phenyl)-pyridin-3-ylamino]-methyl}-2-methyl-phenol]"
2,50 to 90,"Oc1ccc(-c2cncc(NCc3ccc4c(c3)OCO4)c2)cc1 [Compound 126, 4-{5-[(Benzo[1,3]dioxol-5-ylmethyl)-amino]-pyridin-3-yl}-phenol]"
3,50 to 90,"Oc1ccc(-c2cncc(NCc3ccc(F)c(F)c3)c2)cc1 [Compound 127, 4-[5-(3,4-Difluoro-benzylamino)-pyridin-3-yl]-phenol]"

# Target: EGFR (Homo sapiens, UniProt P00533)
# Experiment: as above
# Format: biochemical
# Conditions: class symbol: % inhibition at 10 μM or IC50
# Description: as §1, §2, §3
# EGFR, sequence (P00533 25-1210, species assumed): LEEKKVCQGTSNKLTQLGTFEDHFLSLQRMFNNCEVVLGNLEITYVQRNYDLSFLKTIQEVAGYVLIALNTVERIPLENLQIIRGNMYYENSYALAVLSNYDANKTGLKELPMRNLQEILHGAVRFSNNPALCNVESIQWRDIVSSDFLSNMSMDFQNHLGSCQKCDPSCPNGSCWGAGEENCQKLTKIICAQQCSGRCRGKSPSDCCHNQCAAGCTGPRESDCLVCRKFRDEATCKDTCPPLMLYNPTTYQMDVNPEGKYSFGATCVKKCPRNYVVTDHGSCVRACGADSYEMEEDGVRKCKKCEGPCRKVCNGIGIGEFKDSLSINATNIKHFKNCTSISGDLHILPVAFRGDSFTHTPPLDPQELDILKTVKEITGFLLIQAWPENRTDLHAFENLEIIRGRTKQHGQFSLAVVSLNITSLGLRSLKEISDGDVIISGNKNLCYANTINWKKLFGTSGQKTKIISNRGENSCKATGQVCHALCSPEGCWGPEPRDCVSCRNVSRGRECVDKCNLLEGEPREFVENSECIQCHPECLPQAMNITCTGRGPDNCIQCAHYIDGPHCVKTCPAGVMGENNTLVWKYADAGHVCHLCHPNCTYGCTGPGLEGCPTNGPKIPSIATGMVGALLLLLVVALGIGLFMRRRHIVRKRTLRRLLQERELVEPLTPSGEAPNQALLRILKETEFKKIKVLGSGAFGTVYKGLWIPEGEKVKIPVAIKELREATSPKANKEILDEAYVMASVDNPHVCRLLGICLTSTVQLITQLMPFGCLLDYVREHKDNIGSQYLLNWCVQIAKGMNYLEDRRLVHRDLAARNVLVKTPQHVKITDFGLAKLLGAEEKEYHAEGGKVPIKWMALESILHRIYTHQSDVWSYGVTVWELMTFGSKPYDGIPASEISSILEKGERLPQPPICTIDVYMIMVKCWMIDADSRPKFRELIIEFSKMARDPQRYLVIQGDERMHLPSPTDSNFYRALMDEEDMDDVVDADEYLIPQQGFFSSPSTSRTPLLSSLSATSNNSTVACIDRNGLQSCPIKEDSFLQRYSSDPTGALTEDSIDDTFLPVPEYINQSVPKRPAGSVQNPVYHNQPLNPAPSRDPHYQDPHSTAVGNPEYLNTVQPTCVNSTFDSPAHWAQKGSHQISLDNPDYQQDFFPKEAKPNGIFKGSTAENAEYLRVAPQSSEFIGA
row,SMILES,Inhibitory effect on target EGFR
1,"Cc1ccc(CNc2cncc(-c3cccc(O)c3)c2)cc1O [Compound 247, 5-{[5-(3-Hydroxy-phenyl)-pyridin-3-ylamino]-methyl}-2-methyl-phenol]",A (A: 50-90% inhibition at 10 μM enzyme concentration)
2,"CC(=O)Nc1cccc(-c2cncc(Nc3ccc(F)cc3)c2)c1 [Compound 235, N-{3-[5-(4-Fluoro-phenylamino)-pyridin-3-yl]-phenyl}-acetamide]",A (A: 50-90% inhibition at 10 μM enzyme concentration)
3,"Oc1cccc(CNc2cncc(-c3cccc(O)c3)c2)c1 [Compound 225, 3-{5-[(3-Hydroxybenzyl)amino]pyridin-3-yl}phenol]",A (A: 50-90% inhibition at 10 μM enzyme concentration)

# System: PDGFR
# Experiment: as above
# Format: biochemical
# Conditions: class symbol: % inhibition at 10 μM or IC50
# Description: as §1, §2, §3
row,SMILES,Inhibitory effect on target PDGFR
1,"Cc1ccc(CNc2cncc(-c3cccc(O)c3)c2)cc1O [Compound 247, 5-{[5-(3-Hydroxy-phenyl)-pyridin-3-ylamino]-methyl}-2-methyl-phenol]",A (A: 50-90% inhibition at 10 μM enzyme concentration)
2,"CC(=O)Nc1cccc(-c2cncc(Nc3ccc(F)cc3)c2)c1 [Compound 235, N-{3-[5-(4-Fluoro-phenylamino)-pyridin-3-yl]-phenyl}-acetamide]",A (A: 50-90% inhibition at 10 μM enzyme concentration)
3,"COc1ccccc1Nc1cncc(-c2cccc(NC(C)=O)c2)c1 [Compound 240, N-{3-[5-(2-Methoxy-phenylamino)-pyridin-3-yl]-phenyl}-acetamide]",A (A: 50-90% inhibition at 10 μM enzyme concentration)
4,"Oc1cccc(CNc2cncc(-c3cccc(O)c3)c2)c1 [Compound 225, 3-{5-[(3-Hydroxybenzyl)amino]pyridin-3-yl}phenol]",A (A: 50-90% inhibition at 10 μM enzyme concentration)

# Target: c-kit (Homo sapiens, UniProt P10721)
# Experiment: as above
# Format: biochemical
# Conditions: 1 h; class symbol: % inhibition at 10 μM or IC50; read-out: Inhibitory effect on target c-kit
# Description: as §1, §2, §3
# c-kit, sequence (P10721 26-976): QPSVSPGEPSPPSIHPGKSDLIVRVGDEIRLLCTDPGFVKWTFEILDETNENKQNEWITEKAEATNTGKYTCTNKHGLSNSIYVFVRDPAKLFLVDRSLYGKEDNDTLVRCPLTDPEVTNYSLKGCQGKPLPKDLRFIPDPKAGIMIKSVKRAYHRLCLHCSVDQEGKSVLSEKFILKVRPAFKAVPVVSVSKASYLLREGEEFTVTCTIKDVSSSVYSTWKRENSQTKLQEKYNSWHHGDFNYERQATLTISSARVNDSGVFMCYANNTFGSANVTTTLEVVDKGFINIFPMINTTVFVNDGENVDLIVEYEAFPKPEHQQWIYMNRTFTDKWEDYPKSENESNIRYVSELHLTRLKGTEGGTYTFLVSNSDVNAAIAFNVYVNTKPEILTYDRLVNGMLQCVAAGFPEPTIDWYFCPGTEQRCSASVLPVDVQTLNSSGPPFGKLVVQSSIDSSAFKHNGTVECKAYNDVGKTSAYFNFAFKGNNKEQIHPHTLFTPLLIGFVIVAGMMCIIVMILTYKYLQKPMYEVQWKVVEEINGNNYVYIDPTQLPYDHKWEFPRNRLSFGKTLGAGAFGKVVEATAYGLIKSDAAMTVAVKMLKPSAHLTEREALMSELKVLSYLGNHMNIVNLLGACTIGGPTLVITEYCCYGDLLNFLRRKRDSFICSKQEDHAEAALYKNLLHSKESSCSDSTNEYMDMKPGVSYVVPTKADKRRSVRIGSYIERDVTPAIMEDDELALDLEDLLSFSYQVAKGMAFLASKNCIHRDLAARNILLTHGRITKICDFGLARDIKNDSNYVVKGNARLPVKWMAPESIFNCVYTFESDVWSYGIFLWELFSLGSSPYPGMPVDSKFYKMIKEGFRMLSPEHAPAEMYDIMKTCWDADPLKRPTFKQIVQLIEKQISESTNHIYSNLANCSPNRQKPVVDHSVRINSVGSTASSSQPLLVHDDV
row,inhibition at 10 µM [%],SMILES
1,50 to 90,"Cc1ccc(CNc2cncc(-c3cccc(O)c3)c2)cc1O [Compound 247, 5-{[5-(3-Hydroxy-phenyl)-pyridin-3-ylamino]-methyl}-2-methyl-phenol]"
2,> 90,"Oc1cccc(CNc2cncc(-c3cccc(O)c3)c2)c1 [Compound 225, 3-{5-[(3-Hydroxybenzyl)amino]pyridin-3-yl}phenol]"

# Target: p56Lck (Homo sapiens, UniProt P06239)
# Experiment: as above
# Format: biochemical
# Conditions: 1 h; class symbol: % inhibition at 10 μM or IC50; read-out: Inhibitory effect on target p56Lck
# Description: as §1, §2, §3
row,inhibition at 10 µM [%],SMILES
1,50 to 90,"COc1ccccc1Nc1cncc(-c2cccc(NC(C)=O)c2)c1 [Compound 240, N-{3-[5-(2-Methoxy-phenylamino)-pyridin-3-yl]-phenyl}-acetamide]"
2,> 90,"Oc1cccc(CNc2cncc(-c3cccc(O)c3)c2)c1 [Compound 225, 3-{5-[(3-Hydroxybenzyl)amino]pyridin-3-yl}phenol]"

# Target: CDK5/p35 (Homo sapiens, UniProt Q00535)
# Experiment: as above
# Format: biochemical
# Conditions: class symbol: % inhibition at 10 μM or IC50
# Description: as §1, §2, §3
row,SMILES,Inhibitory effect on target CDK5/p35
1,"Oc1cccc(CNc2cncc(Cc3cccc(O)c3)c2)c1 [Compound 272, (3-hydroxy-benzyl)-[5-(3-hydroxy-benzyl)-pyridin-3-yl]-amine]",A (A: 50-90% inhibition at 10 μM enzyme concentration)

# Target: RICK (Homo sapiens, UniProt O43353)
# Experiment: as above
# Format: biochemical
# Conditions: 1 h; class symbol: % inhibition at 10 μM or IC50; read-out: Inhibitory effect on target RICK
# Description: as §1, §2, §3
# RICK, sequence (O43353 whole entry, species assumed): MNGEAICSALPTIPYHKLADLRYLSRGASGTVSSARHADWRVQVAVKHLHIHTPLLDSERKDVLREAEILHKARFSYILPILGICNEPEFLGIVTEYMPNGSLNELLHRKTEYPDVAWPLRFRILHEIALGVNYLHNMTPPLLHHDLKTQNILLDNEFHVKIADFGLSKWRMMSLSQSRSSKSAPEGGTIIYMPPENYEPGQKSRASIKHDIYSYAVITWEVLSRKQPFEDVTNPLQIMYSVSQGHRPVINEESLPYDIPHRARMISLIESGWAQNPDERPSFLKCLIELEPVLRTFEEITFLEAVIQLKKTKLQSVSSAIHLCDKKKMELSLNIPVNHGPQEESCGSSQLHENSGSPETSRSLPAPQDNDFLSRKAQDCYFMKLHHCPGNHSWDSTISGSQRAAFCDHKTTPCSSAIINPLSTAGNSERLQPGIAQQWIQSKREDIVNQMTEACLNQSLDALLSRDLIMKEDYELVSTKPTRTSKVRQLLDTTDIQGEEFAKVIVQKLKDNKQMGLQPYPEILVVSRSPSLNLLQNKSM
row,inhibition at 10 µM [%],SMILES
1,50 to 90,"Oc1ccc(-c2cncc(NCc3ccc4c(c3)OCO4)c2)cc1 [Compound 126, 4-{5-[(Benzo[1,3]dioxol-5-ylmethyl)-amino]-pyridin-3-yl}-phenol]"
2,50 to 90,"Oc1ccc(-c2cncc(NCc3ccc(F)c(F)c3)c2)cc1 [Compound 127, 4-[5-(3,4-Difluoro-benzylamino)-pyridin-3-yl]-phenol]"

# Same assay, conditions: class symbol: % inhibition at 10 μM or IC50
row,Inhibitory effect on target RICK,SMILES
1,C (C: IC50 measured: <1 μM),"Cc1ccc(CNc2cncc(-c3cccc(O)c3)c2)cc1O [Compound 247, 5-{[5-(3-Hydroxy-phenyl)-pyridin-3-ylamino]-methyl}-2-methyl-phenol]"
2,C (C: IC50 measured: <1 μM),"CC(=O)Nc1cccc(-c2cncc(Nc3ccc(F)cc3)c2)c1 [Compound 235, N-{3-[5-(4-Fluoro-phenylamino)-pyridin-3-yl]-phenyl}-acetamide]"
3,C (C: IC50 measured: <1 μM),"COc1ccccc1Nc1cncc(-c2cccc(NC(C)=O)c2)c1 [Compound 240, N-{3-[5-(2-Methoxy-phenylamino)-pyridin-3-yl]-phenyl}-acetamide]"
4,C (C: IC50 measured: <1 μM),"Oc1cccc(CNc2cncc(-c3cccc(O)c3)c2)c1 [Compound 225, 3-{5-[(3-Hydroxybenzyl)amino]pyridin-3-yl}phenol]"

# Target: CDK1/CyclinB (Homo sapiens, UniProt P06493)
# Experiment: as above
# Format: biochemical
# Conditions: class symbol: % inhibition at 10 μM or IC50
# Description: as §1, §2, §3
# CDK1/CyclinB, sequence (P06493 whole entry, species assumed): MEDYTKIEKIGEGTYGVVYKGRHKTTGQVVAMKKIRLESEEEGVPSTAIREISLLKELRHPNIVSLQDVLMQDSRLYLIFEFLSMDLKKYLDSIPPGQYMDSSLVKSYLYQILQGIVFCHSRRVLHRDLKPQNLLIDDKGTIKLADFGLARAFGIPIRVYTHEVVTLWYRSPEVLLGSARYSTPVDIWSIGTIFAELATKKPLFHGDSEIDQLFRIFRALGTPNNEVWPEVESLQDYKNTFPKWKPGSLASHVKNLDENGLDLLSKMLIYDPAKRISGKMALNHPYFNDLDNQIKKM
# CDK1/CyclinB, sequence (P14635 whole entry partner, species assumed): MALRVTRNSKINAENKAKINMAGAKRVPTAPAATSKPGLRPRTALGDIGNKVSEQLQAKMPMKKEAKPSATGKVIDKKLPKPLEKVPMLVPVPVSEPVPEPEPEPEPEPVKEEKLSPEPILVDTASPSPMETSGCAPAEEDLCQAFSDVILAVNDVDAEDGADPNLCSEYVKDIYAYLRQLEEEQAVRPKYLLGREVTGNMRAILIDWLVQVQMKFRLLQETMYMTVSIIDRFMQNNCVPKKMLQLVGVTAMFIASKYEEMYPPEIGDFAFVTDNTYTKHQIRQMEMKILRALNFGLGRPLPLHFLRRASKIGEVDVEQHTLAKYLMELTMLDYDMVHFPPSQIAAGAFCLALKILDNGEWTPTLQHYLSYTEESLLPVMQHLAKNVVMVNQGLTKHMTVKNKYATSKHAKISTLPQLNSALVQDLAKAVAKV
row,SMILES,Inhibitory effect on target CDK1/CyclinB
1,"CC(=O)Nc1cccc(-c2cncc(Nc3ccc(F)cc3)c2)c1 [Compound 235, N-{3-[5-(4-Fluoro-phenylamino)-pyridin-3-yl]-phenyl}-acetamide]",A (A: 50-90% inhibition at 10 μM enzyme concentration)
2,"COc1ccccc1Nc1cncc(-c2cccc(NC(C)=O)c2)c1 [Compound 240, N-{3-[5-(2-Methoxy-phenylamino)-pyridin-3-yl]-phenyl}-acetamide]",A (A: 50-90% inhibition at 10 μM enzyme concentration)

# Target: CDK2/CyclinA (Homo sapiens, UniProt P24941)
# Experiment: as above
# Format: biochemical
# Conditions: class symbol: % inhibition at 10 μM or IC50
# Description: as §1, §2, §3
row,SMILES,Inhibitory effect on target CDK2/CyclinA
1,"Oc1cccc(CNc2cncc(Cc3cccc(O)c3)c2)c1 [Compound 272, (3-hydroxy-benzyl)-[5-(3-hydroxy-benzyl)-pyridin-3-yl]-amine]",B (B: >90% inhibition at 10 μM enzyme concentration)
